Experimental data taken from patent US20100041089A1, “IMPROVED METHOD FOR DETECTING CHEMICAL […]” (priority 2006, published 2010).

Test system: yeast genes (expressed mRNA)
Test: DNA chip measurement of expressed mRNA of yeast genes after culture with a toxic chemical substance
Format: cell-based, Saccharomyces cerevisiae S288C
Conditions: for The level of expressed mRNA in the presence of chemical substance/The level of expressed mRNA in the absence of chemical substance: cultured two hours with substance; for level of expressed mRNA in the presence of chemical substance / level in the absence of chemical substance: cultured two hours with the chemical substance
Method: Yeast (Saccharomyces cerevisiae S288C (a SUC2mal mel gap2 CUP1)) were cultured at 25° C. on YPD medium (yeast extract 1%, polypeptone 2%, glucose 2%). One of toxic chemical substances was added to the cell at logarithmic growth phase, and the cell was further cultured for two hours. Cell was cultured without any chemical substance in the same condition, and was used as a control. Concentrations of the chemical substances were defined to inhibit the growth of the yeast but not lead to death.
After the completion of cultivation, the culture was centrifuged to collect the cells. To the cells, sodium acetate buffer (50 mM sodium acetate, 10 mM EDTA, 1% SDS) was added, and the mixture was shaken at 65° C. for five minutes, followed by returning to room temperature, and obtaining the supernatant, which procedure was repeated two times. To the supernatant, ½ amount of a solution of phenol/chloroform (1:1) was added, and the mixture was centrifuged to give a supernatant, an equal amount of chloroform was added, and the mixture was centrifuged to give a supernatant. To the supernatant, an equal amount of isopropanol containing 0.3 M sodium acetate was added, and the mixture was allowed to stand at room temperature for 30 minutes, after which the mixture was centrifuged to give sediment of the whole RNAs. Seventy % ethanol was added to the sediment, and the mixture was again centrifuged to give sediment, which was then dried and dissolved in water. mRNA was isolated from the whole RNAs as followings. In view of the fact that a poly A chain is attached to the 3′ terminus of mRNA, a polynucleotide having a poly T structure which was immobilized on the surface of latex beads was used to trap the mRNA, and then the mRNA was washed and eluted with spine column (Oligotex-dT30<Super>mRNA Purification Kit, Takara). Reverse transcription of the mRNA was conducted with a reverse transcriptase (Super Script II Reverse Transcriptase; catalogue No. 18064-014, GibcoBRL) using fluorescence-labeled nucleotides to give cDNAs that were introduced with Cy3-dUTP or Cy5-dUTP during the reverse transcription.
The labeled cDNAs were dissolved in TE buffer (10 mM Tris-HCl/1 mM EDTA, pH 8.0), and the solution was dropped on the DNA chip containing the whole genes of yeast (DNA Chip Research Inc. Japan) so that the cDNAs were hybridized on the DNA chip at 65° C. for over 12 hours. The fluoresces intensity of the DNA chip was read with a scanner, and the ratio relative to the fluorescence intensity resulting from the absence of chemical substance was estimated as the following, which is shown in Tables 1 to 9.
In the Tables, “Intensity” indicated in the rightmost column is a value of the level of expressed mRNA of each gene in control cells as divided by the average level of the expressions of the whole genes. A gene of which mRNA level is lower in control, and is higher in cases of addition of chemical substance, is especially useful in the detection of toxic substances.
Here, when a ratio of an amount of mRNA expressed in the presence of the chemical substance to an amount of mRNA expressed in the absence of the chemical substance is two or more, then it is considered significant.

Cl[C@H]1[C@H](Cl)[C@@H](Cl)[C@@H](Cl)[C@H](Cl)[C@H]1Cl [(7), γ-Hexachlorocyclohexane]
The level of expressed mRNA in the presence of chemical substance/The level of expressed mRNA in the absence of chemical substance (yeast gene YJL151C): 1.4 | The level of expressed mRNA in the presence of chemical substance/The level of expressed mRNA in the absence of chemical substance (yeast gene YJL152W): 1.2 | The level of expressed mRNA in the presence of chemical substance/The level of expressed mRNA in the absence of chemical substance (yeast gene YJL161W): 3.6 | The level of expressed mRNA in the presence of chemical substance/The level of expressed mRNA in the absence of chemical substance (yeast gene YJL171C): 1.4 | The level of expressed mRNA in the presence of chemical substance/The level of expressed mRNA in the absence of chemical substance (yeast gene YJR008W): 2.9 | level of expressed mRNA in the presence of chemical substance / level in the absence of chemical substance (yeast gene YJR030C): 0.7 | The level of expressed mRNA in the presence of chemical substance/The level of expressed mRNA in the absence of chemical substance (yeast gene YJR054W): 0.9 | level of expressed mRNA in the presence of chemical substance / level in the absence of chemical substance (yeast gene YKL051W): 0.6 | The level of expressed mRNA in the presence of chemical substance/The level of expressed mRNA in the absence of chemical substance (yeast gene YKL071W): 3.7 | The level of expressed mRNA in the presence of chemical substance/The level of expressed mRNA in the absence of chemical substance (yeast gene YKL086W): 0.7 | level of expressed mRNA in the presence of chemical substance / level in the absence of chemical substance (yeast gene YKL097C): 0.8 | level of expressed mRNA in the presence of chemical substance / level in the absence of chemical substance (yeast gene YKL100C): 1.2 | The level of expressed mRNA in the presence of chemical substance/The level of expressed mRNA in the absence of chemical substance (yeast gene YKL151C): 5.6 | The level of expressed mRNA in the presence of chemical substance/The level of expressed mRNA in the absence of chemical substance (yeast gene YKL153W): 1.1 | The level of expressed mRNA in the presence of chemical substance/The level of expressed mRNA in the absence of chemical substance (yeast gene YKL195W): 2.1 | level of expressed mRNA in the presence of chemical substance / level in the absence of chemical substance (yeast gene YKR040C): 0.9 | The level of expressed mRNA in the presence of chemical substance/The level of expressed mRNA in the absence of chemical substance (yeast gene YKR091W): 1.3 | The level of expressed mRNA in the presence of chemical substance/The level of expressed mRNA in the absence of chemical substance (yeast gene YLR054C): 1.1 | The level of expressed mRNA in the presence of chemical substance/The level of expressed mRNA in the absence of chemical substance (yeast gene YLR149C): 1.6 | The level of expressed mRNA in the presence of chemical substance/The level of expressed mRNA in the absence of chemical substance (yeast gene YLR152C): 1.4 | The level of expressed mRNA in the presence of chemical substance/The level of expressed mRNA in the absence of chemical substance (yeast gene YLR194C): 1.0 | level of expressed mRNA in the presence of chemical substance / level in the absence of chemical substance (yeast gene YLR226W): 1.9 | The level of expressed mRNA in the presence of chemical substance/The level of expressed mRNA in the absence of chemical substance (yeast gene YLR324W): 1.0 | level of expressed mRNA in the presence of chemical substance / level in the absence of chemical substance (yeast gene YLR338W): 0.9 | The level of expressed mRNA in the presence of chemical substance/The level of expressed mRNA in the absence of chemical substance (yeast gene YLR350W): 1.2 | The level of expressed mRNA in the presence of chemical substance/The level of expressed mRNA in the absence of chemical substance (yeast gene YLR387C): 1.1 | level of expressed mRNA in the presence of chemical substance / level in the absence of chemical substance (yeast gene YLR392C): 1.0 | level of expressed mRNA in the presence of chemical substance / level in the absence of chemical substance (yeast gene YLR415C): 1.2 | level of expressed mRNA in the presence of chemical substance / level in the absence of chemical substance (yeast gene YLR427W): 1.2 | The level of expressed mRNA in the presence of chemical substance/The level of expressed mRNA in the absence of chemical substance (yeast gene YLR460C): 1.1 | level of expressed mRNA in the presence of chemical substance / level in the absence of chemical substance (yeast gene YML013W): 1.3 | level of expressed mRNA in the presence of chemical substance / level in the absence of chemical substance (yeast gene YML029W): 1.1 | level of expressed mRNA in the presence of chemical substance / level in the absence of chemical substance (yeast gene YML041C): 1.4 | level of expressed mRNA in the presence of chemical substance / level in the absence of chemical substance (yeast gene YML079W): 1.2 | The level of expressed mRNA in the presence of chemical substance/The level of expressed mRNA in the absence of chemical substance (yeast gene YML117W): 0.7 | The level of expressed mRNA in the presence of chemical substance/The level of expressed mRNA in the absence of chemical substance (yeast gene YMR009W): 1.9 | The level of expressed mRNA in the presence of chemical substance/The level of expressed mRNA in the absence of chemical substance (yeast gene YMR067C): 1.2 | level of expressed mRNA in the presence of chemical substance / level in the absence of chemical substance (yeast gene YMR068W): 1.5 | level of expressed mRNA in the presence of chemical substance / level in the absence of chemical substance (yeast gene YMR071C): 1.8 | The level of expressed mRNA in the presence of chemical substance/The level of expressed mRNA in the absence of chemical substance (yeast gene YMR090W): 2.7 | The level of expressed mRNA in the presence of chemical substance/The level of expressed mRNA in the absence of chemical substance (yeast gene YMR095C): 1.2 | The level of expressed mRNA in the presence of chemical substance/The level of expressed mRNA in the absence of chemical substance (yeast gene YMR097C): 1.5 | The level of expressed mRNA in the presence of chemical substance/The level of expressed mRNA in the absence of chemical substance (yeast gene YMR102C): 1.8 | The level of expressed mRNA in the presence of chemical substance/The level of expressed mRNA in the absence of chemical substance (yeast gene YMR107W): 1.2 | level of expressed mRNA in the presence of chemical substance / level in the absence of chemical substance (yeast gene YMR160W): 1.0 | The level of expressed mRNA in the presence of chemical substance/The level of expressed mRNA in the absence of chemical substance (yeast gene YMR180C): 1.7 | The level of expressed mRNA in the presence of chemical substance/The level of expressed mRNA in the absence of chemical substance (yeast gene YMR184W): 1.6 | The level of expressed mRNA in the presence of chemical substance/The level of expressed mRNA in the absence of chemical substance (yeast gene YMR191W): 2.0 | The level of expressed mRNA in the presence of chemical substance/The level of expressed mRNA in the absence of chemical substance (yeast gene YMR295C): 1.3 | The level of expressed mRNA in the presence of chemical substance/The level of expressed mRNA in the absence of chemical substance (yeast gene YMR316W): 2.0 | level of expressed mRNA in the presence of chemical substance / level in the absence of chemical substance (yeast gene YNL026W): 1.5 | The level of expressed mRNA in the presence of chemical substance/The level of expressed mRNA in the absence of chemical substance (yeast gene YNL044W): 0.9
